From US20040235070A1, “Immune reactivity to expressed activated oncogenes for diagnosis and treatment of malignancy” (Washington Research Foundation, priority 1990, published 2004)

Legend:
[1] = tested on: bcr3-abl2 peptide-specific CD4^+ T cell clones; assay: Proliferative assay of bcr3-abl2 peptide-specific CD4+ T cell clones ([3H] thymidine incorporation); format: cell-based, BALB/c mice; details: for [^3H] Thymidine Incorporation (c.p.m.) after Stimulation / [^3H] Thymidine Incorporation (c.p.m.): 96-hour culture; for [^3H] Thymidine Incorporation (c.p.m.): Table 2; for [^3H] Thymidine Incorporation (c.p.m.) after Stimulation with bcr3-abl2 peptide (5 μg/ml): peptides of varying lengths 5 μg/ml, 96 hour culture, Table 4
Method: (§1) Mice (female BALB/c and C57BL/6 (B6), 6 to 8 weeks old; Jackson Laboratories, Bar Harbor, Me.) were inoculated twice at 2-week intervals by subcutaneous injection with Complete Freund's Adjuvant (Sigma Chemical Co., St. Louis, Mo.) alone or emulsified with bcr3-abl2 peptide (100 μg). Ten days after the final immunization, single cell suspensions of draining lymph nodes and spleens were prepared in medium consisting of 1:1 mixture of RPMI 1640 (Gibco Laboratories, Inc., Grand Island, N.Y.) and EHAA (Biofluids, Inc., Rockville, Md.) with 2.5×10^−5 M 2-ME, 200 U/ml penicillin, 200 U/ml streptomycin, 10 mM L-glutamine and 10% fetal calf serum. For proliferative assays, lymphocytes were cultured in 96-well plates at 2×10^5 cells per well with 4×10^5 irradiated syngeneic spleen cells (3,000 rad) and designated (total volume of 200 μl per well). Plates were incubated in a humidified atmosphere under 5% CO2 tension at 37° C. for 72 hours, and then pulsed for 18 hours with […] of [^3H]-thumidine per well. Proliferative responses of cloned T cells utilized 2×10^4 cells per well with 5×10^5 irradiated syngeneic spleen cells (3,000 rad) and designated peptide.
Lymphocytes from the draining lymph nodes of mice immunized with bcr3-abl2 peptide were cultured in 24-well culture plates at 4×10^6 cells per well with 2×10^6 irradiated syngeneic spleen cells and bcr3-abl2 peptide at 25 μg/ml (total volume 2 ml). The plates were cultured in a humidified atmosphere under 5% CO2 tension at 37° C. for 5 days then split 1:2. After 10 days, lymphocytes were restimulated at 1×10^6 lymphocytes per well in 24-well culture plates with 5×10^6 irradiated syngeneic spleen cells and peptide (25 μg/ml). Two days after the second in vitro stimulation, T cells were-plated at 0.5 cells per well in 96-well flat-bottom plates with 1×10^6 irradiated syngeneic spleen cells and rIL-2 (50 U/ml). Derived T cell clones were maintained by periodic stimulation with peptide (1 μg/ml) plus irradiated syngeneic spleen cells followed by expansion with rIL-2 (10 U/ml) every 2 weeks. T cell clones were stained with FITC-conjugated anti-Thy 1.2 (1%), or FITC-conjugated anti-Lyt2 (2%), or PE-conjugated anti-L3T4 (3%) mAbs (Becton Dickinson Immunocytochemistry Systems, Mountain View, Calif.) at 4° C. for 45 minutes.

[2] = tested on: lymph node and splenic lymphocytes from immunized mice; assay: Proliferation of lymph node and spleen lymphocytes from mice immunized with bcr3-abl2 peptide; format: cell-based; details: BALB/c mice immunized with bcr3-abl2 12 mer peptide
Method: Ten days following immunization with peptide, draining lymph node cells (Panel A) and spleen cells (Panel B) were cultured alone or with bcr3-abl2 12 mer peptide, or bcr2-abl2 12 mer peptide, or ras-c12 12 mer peptide at 25 μg/ml, and assayed after 96 hours for proliferation by [^3H] thymidine uptake. The data represent the mean of triplicate determinations of the c.p.m.+S.D.
as §1, with “Proliferative responses of cloned T cells utilized 2×10^4 cells per well with 5×10^5 irradiated syngeneic spleen cells (3,000 rad) and designated peptide.” left out

Q: “G F K Q S S K A L Q R P (GFKQSSKALQRP) [bcr3-abl2 12 mer peptide, 12 amino acid peptide identical to the joining region of p210 bcr-abl (bcr exon 3 fused to c-abl exon 2)]” was tested. Which “[^3H] Thymidine Incorporation (c.p.m.) after Stimulation” value ([1]; T cell clone 1D2, peptide 0.04 μg/ml) did it give?
A: 16,423 c.p.m.

Q: What about the “[^3H] Thymidine Incorporation (c.p.m.) after Stimulation” value ([1]; T cell clone 1D2, peptide 0.2 μg/ml) of the same sequence?
A: 91,251 c.p.m.

Q: And the “[^3H] Thymidine Incorporation (c.p.m.) after Stimulation” value ([1]; T cell clone 1D2, peptide 1 μg/ml)?
A: 183,229 c.p.m.

Q: And the “[^3H] Thymidine Incorporation (c.p.m.)” value ([1]; T cell clone 1D2, peptide 5 μg/ml)?
A: 274,701 c.p.m.

Q: What about the “[^3H] Thymidine Incorporation (c.p.m.) after Stimulation” value ([1]; T cell clone 1D2, peptide 5 μg/ml, Table 3) of the same sequence?
A: 259,018 c.p.m.

Q: And the “[^3H] Thymidine Incorporation (c.p.m.) after Stimulation” value ([1]; T cell clone 1D2, peptide 25 μg/ml)?
A: 66,329 c.p.m.

Q: What about the “[^3H] Thymidine Incorporation (c.p.m.) after Stimulation with bcr3-abl2 peptide (5 μg/ml)” value ([1]; T cell clone 1D2) of the same sequence?
A: 120,049 c.p.m.

Q: What about the “[^3H] Thymidine Incorporation (c.p.m.) after Stimulation” value ([1]; T cell clone 2B12, peptide 0.04 μg/ml) of the same sequence?
A: 4,132 c.p.m.

Q: And the “[^3H] Thymidine Incorporation (c.p.m.) after Stimulation” value ([1]; T cell clone 2B12, peptide 0.2 μg/ml)?
A: 71,651 c.p.m.

Q: What about the “[^3H] Thymidine Incorporation (c.p.m.) after Stimulation” value ([1]; T cell clone 2B12, peptide 1 μg/ml) of the same sequence?
A: 213,089 c.p.m.

Q: What about the “[^3H] Thymidine Incorporation (c.p.m.)” value ([1]; T cell clone 2B12, peptide 5 μg/ml) of the same sequence?
A: 109,319 c.p.m.

Q: And the “[^3H] Thymidine Incorporation (c.p.m.) after Stimulation” value ([1]; T cell clone 2B12, peptide 5 μg/ml, Table 3)?
A: 229,010 c.p.m.

Q: What about the “[^3H] Thymidine Incorporation (c.p.m.) after Stimulation” value ([1]; T cell clone 2B12, peptide 25 μg/ml) of the same sequence?
A: 132,620 c.p.m.

Q: What about the “[^3H] Thymidine Incorporation (c.p.m.) after Stimulation” value ([1]; T cell clone 2D4, peptide 0.04 μg/ml) of the same sequence?
A: 12,599 c.p.m.

Q: What about the “[^3H] Thymidine Incorporation (c.p.m.) after Stimulation” value ([1]; T cell clone 2D4, peptide 0.2 μg/ml) of the same sequence?
A: 150,711 c.p.m.

Q: What about the “[^3H] Thymidine Incorporation (c.p.m.) after Stimulation” value ([1]; T cell clone 2D4, peptide 1 μg/ml) of the same sequence?
A: 256,606 c.p.m.

Q: What about the “[^3H] Thymidine Incorporation (c.p.m.)” value ([1]; T cell clone 2D4, peptide 5 μg/ml) of the same sequence?
A: 262,799 c.p.m.

Q: What about the “[^3H] Thymidine Incorporation (c.p.m.) after Stimulation” value ([1]; T cell clone 2D4, peptide 5 μg/ml, Table 3) of the same sequence?
A: 182,266 c.p.m.

Q: What about the “[^3H] Thymidine Incorporation (c.p.m.) after Stimulation” value ([1]; T cell clone 2D4, peptide 25 μg/ml) of the same sequence?
A: 42,623 c.p.m.

Q: And the “[^3H] Thymidine Incorporation (c.p.m.) after Stimulation” value ([1]; T cell clone 2E3, peptide 0.04 μg/ml)?
A: 1,475 c.p.m.

Q: And the “[^3H] Thymidine Incorporation (c.p.m.) after Stimulation” value ([1]; T cell clone 2E3, peptide 0.2 μg/ml)?
A: 93,921 c.p.m.

Q: What about the “[^3H] Thymidine Incorporation (c.p.m.) after Stimulation” value ([1]; T cell clone 2E3, peptide 1 μg/ml) of the same sequence?
A: 273,273 c.p.m.

Q: And the “[^3H] Thymidine Incorporation (c.p.m.)” value ([1]; T cell clone 2E3, peptide 5 μg/ml)?
A: 293,219 c.p.m.

Q: What about the “[^3H] Thymidine Incorporation (c.p.m.) after Stimulation” value ([1]; T cell clone 2E3, peptide 5 μg/ml, Table 3) of the same sequence?
A: 407,729 c.p.m.

Q: What about the “[^3H] Thymidine Incorporation (c.p.m.) after Stimulation” value ([1]; T cell clone 2E3, peptide 25 μg/ml) of the same sequence?
A: 358,253 c.p.m.

Q: What about the “[^3H] Thymidine Incorporation (c.p.m.) after Stimulation” value ([1]; T cell clone 2E10, peptide 0.04 μg/ml) of the same sequence?
A: 26,195 c.p.m.

Q: What about the “[^3H] Thymidine Incorporation (c.p.m.) after Stimulation” value ([1]; T cell clone 2E10, peptide 0.2 μg/ml) of the same sequence?
A: 235,103 c.p.m.

Q: And the “[^3H] Thymidine Incorporation (c.p.m.) after Stimulation” value ([1]; T cell clone 2E10, peptide 1 μg/ml)?
A: 333,056 c.p.m.

Q: And the “[^3H] Thymidine Incorporation (c.p.m.)” value ([1]; T cell clone 2E10, peptide 5 μg/ml)?
A: 242,633 c.p.m.

Q: And the “[^3H] Thymidine Incorporation (c.p.m.) after Stimulation” value ([1]; T cell clone 2E10, peptide 5 μg/ml, Table 3)?
A: 312,783 c.p.m.

Q: And the “[^3H] Thymidine Incorporation (c.p.m.) after Stimulation” value ([1]; T cell clone 2E10, peptide 25 μg/ml)?
A: 131,643 c.p.m.

Q: What about the “[^3H] Thymidine Incorporation (c.p.m.) after Stimulation with bcr3-abl2 peptide (5 μg/ml)” value ([1]; T cell clone 2E10) of the same sequence?
A: 96,525 c.p.m.

Q: What about the “[^3H] Thymidine Incorporation (c.p.m.) after Stimulation” value ([1]; T cell clone 3B7, peptide 0.04 μg/ml) of the same sequence?
A: 60,957 c.p.m.

Q: What about the “[^3H] Thymidine Incorporation (c.p.m.) after Stimulation” value ([1]; T cell clone 3B7, peptide 0.2 μg/ml) of the same sequence?
A: 56,967 c.p.m.

Q: And the “[^3H] Thymidine Incorporation (c.p.m.) after Stimulation” value ([1]; T cell clone 3B7, peptide 1 μg/ml)?
A: 111,212 c.p.m.

Q: What about the “[^3H] Thymidine Incorporation (c.p.m.)” value ([1]; T cell clone 3B7, peptide 5 μg/ml) of the same sequence?
A: 64,935 c.p.m.

Q: And the “[^3H] Thymidine Incorporation (c.p.m.) after Stimulation” value ([1]; T cell clone 3B7, peptide 5 μg/ml, Table 3)?
A: 149,640 c.p.m.

Q: What about the “[^3H] Thymidine Incorporation (c.p.m.) after Stimulation” value ([1]; T cell clone 3B7, peptide 25 μg/ml) of the same sequence?
A: 53,441 c.p.m.

Q: And the “[^3H] Thymidine Incorporation (c.p.m.) after Stimulation” value ([1]; T cell clone 3E11, peptide 0.04 μg/ml)?
A: 91,240 c.p.m.

Q: What about the “[^3H] Thymidine Incorporation (c.p.m.) after Stimulation” value ([1]; T cell clone 3E11, peptide 0.2 μg/ml) of the same sequence?
A: 135,985 c.p.m.

Q: What about the “[^3H] Thymidine Incorporation (c.p.m.) after Stimulation” value ([1]; T cell clone 3E11, peptide 1 μg/ml) of the same sequence?
A: 189,843 c.p.m.

Q: And the “[^3H] Thymidine Incorporation (c.p.m.)” value ([1]; T cell clone 3E11, peptide 5 μg/ml)?
A: 263,425 c.p.m.

Q: What about the “[^3H] Thymidine Incorporation (c.p.m.) after Stimulation” value ([1]; T cell clone 3E11, peptide 5 μg/ml, Table 3) of the same sequence?
A: 130,633 c.p.m.

Q: And the “[^3H] Thymidine Incorporation (c.p.m.) after Stimulation” value ([1]; T cell clone 3E11, peptide 25 μg/ml)?
A: 40,755 c.p.m.

Q: And the “[^3H] Thymidine Incorporation (c.p.m.) after Stimulation” value ([1]; T cell clone 3G2, peptide 0.04 μg/ml)?
A: 9,440 c.p.m.

Q: And the “[^3H] Thymidine Incorporation (c.p.m.) after Stimulation” value ([1]; T cell clone 3G2, peptide 0.2 μg/ml)?
A: 49,602 c.p.m.

Q: And the “[^3H] Thymidine Incorporation (c.p.m.) after Stimulation” value ([1]; T cell clone 3G2, peptide 1 μg/ml)?
A: 150,799 c.p.m.

Q: And the “[^3H] Thymidine Incorporation (c.p.m.)” value ([1]; T cell clone 3G2, peptide 5 μg/ml)?
A: 30,846 c.p.m.

Q: What about the “[^3H] Thymidine Incorporation (c.p.m.) after Stimulation” value ([1]; T cell clone 3G2, peptide 5 μg/ml, Table 3) of the same sequence?
A: 168,387 c.p.m.

Q: What about the “[^3H] Thymidine Incorporation (c.p.m.) after Stimulation” value ([1]; T cell clone 3G2, peptide 25 μg/ml) of the same sequence?
A: 132,024 c.p.m.

Q: What about the “[^3H] Thymidine Incorporation (c.p.m.) after Stimulation” value ([1]; T cell clone 3G3, peptide 0.04 μg/ml) of the same sequence?
A: 11,510 c.p.m.

Q: What about the “[^3H] Thymidine Incorporation (c.p.m.) after Stimulation” value ([1]; T cell clone 3G3, peptide 0.2 μg/ml) of the same sequence?
A: 18,403 c.p.m.

Q: What about the “[^3H] Thymidine Incorporation (c.p.m.) after Stimulation” value ([1]; T cell clone 3G3, peptide 1 μg/ml) of the same sequence?
A: 93,219 c.p.m.

Q: And the “[^3H] Thymidine Incorporation (c.p.m.)” value ([1]; T cell clone 3G3, peptide 5 μg/ml)?
A: 61,521 c.p.m.

Q: And the “[^3H] Thymidine Incorporation (c.p.m.) after Stimulation” value ([1]; T cell clone 3G3, peptide 5 μg/ml, Table 3)?
A: 143,670 c.p.m.

Q: And the “[^3H] Thymidine Incorporation (c.p.m.) after Stimulation” value ([1]; T cell clone 3G3, peptide 25 μg/ml)?
A: 101,280 c.p.m.

Q: What about the “response of bcr3-abl2 peptide-specific T cell clones (in words)” value ([1]; proliferative assay with irradiated syngeneic APC) of the same sequence?
A: responded specifically

Q: And the “lowest concentration to which clones responded vigorously” value ([1]; some clones, lowest concentration tested)?
A: 0.04 µg/mL

Q: What about the “proliferation in vitro of lymph node and splenic lymphocytes” value [2] of the same sequence?
A: proliferated in vitro
